Test results taken from patent publication US8912124B2, “Use of derivatives of (1-cyanocyclopropyl)phenylphosphinic acid, esters thereof and/or salts thereof for enhancing tolerance in plants to abiotic stress” (Bayer Cropscience AG, priority 2010, dated 2014).

Columns and labels:
Format in all cases: in vivo
BRSNS=Brassica napus = assay: Drought stress test on crop plants, spray application, efficacy (EF) on Brassica napus; settings: percentage reduction in intensity of damage, mean of three results
Method: (§1) Seeds of monocotyledonous and dicotyledonous crop plants were placed in sandy loam in wood-fiber pots, covered with soil and cultivated in a greenhouse under good growth conditions. The test plants were treated at the early leaf stage (BBCH10-BBCH13). To ensure uniform water supply before commencement of stress, the potted plants were supplied with the maximum amount of water immediately beforehand by dam irrigation and, after application, transferred in plastic inserts in order to prevent subsequent, excessively rapid drying. The inventive compounds, formulated in the form of wettable powders (WP), wettable granules (WG), suspension concentrates (SC) or emulsion concentrates (EC), were sprayed onto the green parts of the plants as an aqueous suspension at an equivalent water application rate of 600 I/ha with addition of 0.2% wetting agent (agrotin). Substance application was followed immediately by stress treatment of the plants (cold or drought stress). For cold stress treatment, the plants are kept under the following controlled conditions: • “day”: 12 hours with illumination at 8° C. • “night”: 12 hours without illumination at 1° C.
(§2) Drought stress is induced by gradual drying out under the following conditions: • “day”: 14 hours with illumination at 26° C. • “night”: 10 hours without illumination at 18° C.
The duration of the respective stress phases was guided mainly by the state of the untreated, stressed control plants and thus varied from crop to crop. It was ended (by re-irrigating or transfer to a greenhouse with good growth conditions) as soon as irreversible damage was observed on the untreated, stressed control plants. In the case of dicotyledonous crops, for example oilseed rape and soya, the duration of the drought stress phase varied between 3 and 5 days, in the case of monocotyledonous crops, for example wheat, barley or corn, between 6 and 10 days. The duration of the cold stress phase varied between 12 and 14 days.
The end of the stress phase was followed by an approx. 5-7-day recovery phase, during which the plants were once again kept under good growth conditions in a greenhouse. In order to rule out any influence of the effects observed by any fungicidal action of the test compounds, it was additionally ensured that the tests proceed without fungal infection and without infection pressure.
After the recovery phase had ended, the intensities of damage were rated in visual comparison to untreated, unstressed controls of the same age (in the case of drought stress) or the same growth stage (in the case of cold stress). The intensity of damage was first assessed as a percentage (100%=plants have died, 0%=like control plants). These values were then used to calculate the efficacy of the test compounds (=percentage reduction in the intensity of damage as a result of substance application) by the following formula: […]
DVus: damage value of the untreated, stressed control
DVts: damage value of the plants treated with test compound
Tables A.1, A.2 and A.3 show the efficacies of selected inventive compounds of the formula (I) and of the formula (II) on different crop plants (BRSNS=Brassica napus (A.1;) TRZAS=Triticum aestivum (A.2); ZEAMX=Zea mays (A.3) under drought stress.
The values stated each represent mean values from three results of the same test.

TRZAS=Triticum aestivum = assay: Drought stress test on crop plants, spray application, efficacy (EF) on Triticum aestivum; settings: dosage 25 g/ha, percentage reduction in intensity of damage, mean of three results
Method: Seeds of monocotyledonous and dicotyledonous crop plants were placed in sandy loam in wood-fiber pots, covered with soil and cultivated in a greenhouse under good growth conditions. The test plants were treated at the early leaf stage (BBCH10-BBCH13). To ensure uniform water supply before commencement of stress, the potted plants were supplied with the maximum amount of water immediately beforehand by dam irrigation and, after application, transferred in plastic inserts in order to prevent subsequent, excessively rapid drying. The inventive compounds, formulated in the form of wettable powders (WP), wettable granules (WG), suspension concentrates (SC) or emulsion concentrates (EC), were sprayed onto the green parts of the plants as an aqueous suspension at an equivalent water application rate of 600 I/ha with addition of 0.2% wetting agent (agrotin). Substance application was followed immediately by stress treatment of the plants (cold or drought stress). […]
(§3) After the recovery phase had ended, the intensities of damage were rated in visual comparison to untreated, unstressed controls of the same age (in the case of drought stress) or the same growth stage (in the case of cold stress). The intensity of damage was first assessed as a percentage (100%=plants have died, 0%=like control plants). […]

ZEAMX=Zea mays = assay: Drought stress test on crop plants, spray application, efficacy (EF) on Zea mays; settings: percentage reduction in intensity of damage, mean of three results
Method: as §1, §2
The duration of the respective stress phases was guided mainly by the state of the untreated, stressed control plants and thus varied from crop to crop. It was ended (by re-irrigating or transfer to a greenhouse with good growth conditions) as soon as irreversible damage was observed on the untreated, stressed control plants. […]
as §3

Row | Compound | EF (BRSNS) (BRSNS=Brassica napus; dosage 25 g/ha) [%] | also measured
1 | CCOP(=O)(c1ccccc1)C1(C#N)CC1 (stereo not shown) [Compound 2-2, ethyl (1-cyanocyclopropyl)phenylphosphinate] | >5 | EF (TRZAS) (TRZAS=Triticum aestivum): >5%
2 | CCOP(=O)(c1cccc(C)c1)C1(C#N)CC1 (stereo not shown) [Compound 2-16] |  | EF (BRSNS) (BRSNS=Brassica napus; dosage 250 g/ha): >5%
3 | CCOP(=O)(c1ccc(C)cc1)C1(C#N)CC1 (stereo not shown) [Compound 2-17] |  | EF (BRSNS) (BRSNS=Brassica napus; dosage 250 g/ha): >5%
4 | CCOP(=O)(c1ccccc1OC)C1(C#N)CC1 (stereo not shown) [Compound 2-18] | >5 | 
5 | CCOP(=O)(c1cccc(OC)c1)C1(C#N)CC1 (stereo not shown) [Compound 2-19] | >5 | 
6 | CCOP(=O)(c1cccc(C(=O)O)c1)C1(C#N)CC1 (stereo not shown) [Compound 2-34] | >5 | 
7 | CCOC(=O)c1cccc(P(=O)(OCC)C2(C#N)CC2)c1 (stereo not shown) [Compound 2-37] | >5 | 
8 | CCOP(=O)(c1cc(Cl)cc(Cl)c1)C1(C#N)CC1 (stereo not shown) [Compound 2-111] | >5 | 
9 | CCCOP(=O)(c1ccccc1)C1(C#N)CC1 (stereo not shown) [Compound 2-130] | >5 | EF (ZEAMX) (ZEAMX=Zea mays; dosage 25 g/ha): >5%
10 | CC(C)COP(=O)(c1ccccc1)C1(C#N)CC1 (stereo not shown) [Compound 2-135] | >5 | EF (TRZAS) (TRZAS=Triticum aestivum): >5%
11 | N#CC1(P(=O)(OC2CCCCC2)c2ccccc2)CC1 (stereo not shown) [Compound 2-142] | >5 | 
12 | N#CC1(P(=O)(OCc2ccccc2)c2ccccc2)CC1 (stereo not shown) [Compound 2-155] | >5 | EF (ZEAMX) (ZEAMX=Zea mays; dosage 25 g/ha): >5%
13 | CCCOP(=O)(c1ccccc1F)C1(C#N)CC1 (stereo not shown) [Compound 2-158] | >5 | EF (ZEAMX) (ZEAMX=Zea mays; dosage 250 g/ha): >5%
14 | CCCOP(=O)(c1ccccc1Cl)C1(C#N)CC1 (stereo not shown) [Compound 2-159] | >5 | 
